ChEMBL document CHEMBL1201862, “PubChem BioAssay data set” (2004)
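Five compound concentrations were applied to cells in 96-well plates for 48 hours; endpoints were derived by simple linear interpolation of the resulting dose-response curve. GI50 marks 50% less growth.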 The source made the active and inactive calls. Rule as the data show it: active = GI50 up to about 1.1 µM and inactive = higher.

Key:
Experiment in all cases: NCI-60 cell line screen, 48 h
HCC 2998 = test system: HCC 2998
Hs-578T = test system: Hs-578T
MCF7 = test system: MCF7
HT-29 = test system: HT-29
Malme-3M = test system: Malme-3M
786-0 = test system: 786-0
BT-549 = test system: BT-549
ACHN = test system: ACHN
SF-268 = test system: SF-268
MDA-MB-231 = test system: MDA-MB-231
LOX IMVI = test system: LOX IMVI
RPMI-8226 = test system: RPMI-8226
COLO 205 = test system: COLO 205
MDA-N = test system: MDA-N
SK-MEL-5 = test system: SK-MEL-5
MDA-MB-435 = test system: MDA-MB-435
SN12C = test system: SN12C
OVCAR-3 = test system: OVCAR-3
TK-10 = test system: TK-10

Row | Structure (SMILES) | GI50 (HCC 2998) | GI50 (Hs-578T) | GI50 (MCF7) | GI50 (HT-29) | GI50 (Malme-3M) | GI50 (786-0) | GI50 (BT-549) | GI50 (ACHN) | GI50 (SF-268) | GI50 (MDA-MB-231) | GI50 (LOX IMVI) | GI50 (RPMI-8226) | GI50 (COLO 205) | GI50 (MDA-N) | GI50 (SK-MEL-5) | GI50 (MDA-MB-435) | GI50 (SN12C) | GI50 (OVCAR-3) | GI50 (TK-10)
1 | CNC(=S)/C(=N\Nc1[nH]cnc1C(N)=O)C(N)=S | 1.99 µM (inactive) | 9.14 µM (inactive) | 16.5 µM (inactive) | 16.1 µM (inactive) | 1.1 µM (active) | 7.71 µM (inactive) | 29.9 µM (inactive) | 5.32 µM (inactive) | 3.18 µM (inactive) | 2.12 µM (inactive) | 0.598 µM (active) | 1.14 µM (inactive) | 4.57 µM (inactive) | 4.34 µM (inactive) | 11.5 µM (inactive) | 7.03 µM (inactive) | 2.44 µM (inactive) | 6.43 µM (inactive) | 1.24 µM (inactive)
2 | NS(=O)(=O)c1ccc(N=C2C(=O)Nc3ccccc32)cc1 | > 100 µM (inactive) | > 100 µM (inactive) | 90.2 µM (inactive) | > 100 µM (inactive) | > 100 µM (inactive) | > 100 µM (inactive) | > 100 µM (inactive) | > 100 µM (inactive) | > 100 µM (inactive) | > 100 µM (inactive) | 57.7 µM (inactive) | > 100 µM (inactive) | 13.1 µM (inactive) | > 100 µM (inactive) | 36.8 µM (inactive) | 24.5 µM (inactive) | > 100 µM (inactive) | > 100 µM (inactive) | > 100 µM (inactive)
3 | Cc1ccc(NC(c2ccccc2)P(=O)(c2ccccc2)c2ccccc2)cc1 (stereo not drawn) | > 100 µM (inactive) | 44.7 µM (inactive) | > 100 µM (inactive) | > 100 µM (inactive) | > 100 µM (inactive) | 95.1 µM (inactive) | > 100 µM (inactive) | 63.7 µM (inactive) | 71.3 µM (inactive) | > 100 µM (inactive) | > 100 µM (inactive) | > 100 µM (inactive) | > 100 µM (inactive) | > 100 µM (inactive) | > 100 µM (inactive) | > 100 µM (inactive) | > 100 µM (inactive) | > 100 µM (inactive) | > 100 µM (inactive)
4 | CCOC(=O)NC(Nc1ccc(S(=O)(=O)Nc2ncccn2)cc1)(C(=O)OCC)C(F)(F)F (stereo not drawn) | > 100 µM (inactive) | > 100 µM (inactive) | 0.279 µM (active) | > 100 µM (inactive) | > 100 µM (inactive) | > 100 µM (inactive) | > 100 µM (inactive) | > 100 µM (inactive) | > 100 µM (inactive) | > 100 µM (inactive) | > 100 µM (inactive) | > 100 µM (inactive) | > 100 µM (inactive) | > 100 µM (inactive) | > 100 µM (inactive) | > 100 µM (inactive) | > 100 µM (inactive) | > 100 µM (inactive) | –
5 | COc1cccc(NC(=O)c2c(N)n[nH]c2SC)c1 | > 100 µM (inactive) | > 100 µM (inactive) | > 100 µM (inactive) | > 100 µM (inactive) | > 100 µM (inactive) | > 100 µM (inactive) | > 100 µM (inactive) | > 100 µM (inactive) | > 100 µM (inactive) | > 100 µM (inactive) | > 100 µM (inactive) | 84.9 µM (inactive) | > 100 µM (inactive) | > 100 µM (inactive) | > 100 µM (inactive) | > 100 µM (inactive) | > 100 µM (inactive) | – | > 100 µM (inactive)
6 | CC(C)O/N=C/c1cc(NC(=S)OC(C)C)ccc1Cl | 45.2 µM (inactive) | 30.1 µM (inactive) | 23.5 µM (inactive) | 23.1 µM (inactive) | > 91.8 µM (inactive) | 33.3 µM (inactive) | 55.5 µM (inactive) | 35.2 µM (inactive) | 36.1 µM (inactive) | 19.1 µM (inactive) | 28.1 µM (inactive) | 13.8 µM (inactive) | 56.8 µM (inactive) | > 69.5 µM (inactive) | 23 µM (inactive) | > 61.4 µM (inactive) | 31.6 µM (inactive) | 32.5 µM (inactive) | > 58.6 µM (inactive)
7 | CN(C)Cc1cc(/N=N/c2ccc(Cl)c(Cl)c2)ccc1O | 12.1 µM (inactive) | 6.03 µM (inactive) | 4.46 µM (inactive) | 6.53 µM (inactive) | 15.6 µM (inactive) | 11.5 µM (inactive) | 13.8 µM (inactive) | 4.44 µM (inactive) | 3.61 µM (inactive) | 5.15 µM (inactive) | 3.4 µM (inactive) | 14.3 µM (inactive) | 2.84 µM (inactive) | 11.4 µM (inactive) | 12.4 µM (inactive) | 11.7 µM (inactive) | 14.7 µM (inactive) | 6.34 µM (inactive) | 10.9 µM (inactive)
8 | CC(C)(C)OC(=O)n1c(-c2ccccc2F)cc(=O)c2cc3c(cc21)OCO3 | 0.0715 µM (active) | 0.0407 µM (active) | 0.0413 µM (active) | 0.0497 µM (active) | 0.0526 µM (active) | 0.0541 µM (active) | 19.8 µM (inactive) | 0.186 µM (active) | 0.191 µM (active) | 3.68 µM (inactive) | 0.111 µM (active) | 0.0364 µM (active) | 0.0942 µM (active) | < 0.01 µM (active) | 0.0521 µM (active) | 0.0214 µM (active) | – | 0.03 µM (active) | 4.66 µM (inactive)
9 | Cc1ccc(NC(S)=Nc2c(C)n(C)n(-c3ccccc3)c2=O)cc1 | > 100 µM (inactive) | > 100 µM (inactive) | > 100 µM (inactive) | > 100 µM (inactive) | > 100 µM (inactive) | > 100 µM (inactive) | > 100 µM (inactive) | > 100 µM (inactive) | > 100 µM (inactive) | > 100 µM (inactive) | > 100 µM (inactive) | > 100 µM (inactive) | > 100 µM (inactive) | > 100 µM (inactive) | > 100 µM (inactive) | > 100 µM (inactive) | – | > 100 µM (inactive) | > 100 µM (inactive)
10 | CNC(=S)NN=C1NCCCN1 | > 100 µM (inactive) | > 100 µM (inactive) | > 100 µM (inactive) | > 100 µM (inactive) | > 100 µM (inactive) | > 100 µM (inactive) | > 100 µM (inactive) | > 100 µM (inactive) | > 100 µM (inactive) | > 100 µM (inactive) | > 100 µM (inactive) | > 100 µM (inactive) | > 100 µM (inactive) | > 100 µM (inactive) | > 100 µM (inactive) | > 100 µM (inactive) | – | > 100 µM (inactive) | > 100 µM (inactive)
11 | Cc1sc(NC=C2C(=O)CC(C)(C)CC2=O)nc1-c1ccccc1 | > 100 µM (inactive) | > 100 µM (inactive) | > 100 µM (inactive) | > 100 µM (inactive) | – | > 100 µM (inactive) | > 100 µM (inactive) | > 100 µM (inactive) | > 100 µM (inactive) | > 100 µM (inactive) | > 100 µM (inactive) | > 100 µM (inactive) | > 100 µM (inactive) | > 100 µM (inactive) | > 100 µM (inactive) | > 100 µM (inactive) | > 100 µM (inactive) | > 100 µM (inactive) | > 100 µM (inactive)
